Results published in the NIST ThermoML archive (doi:10.1021/je034159d).
± gives the expanded uncertainty stated by the source.

Tests used:
[1] = 313.15 K; 101.33 kPa; Liquid; Vibrating tube method
[2] = refractive index (Na D-line) (dimensionless); details: 313.15 K; 101.33 kPa; Liquid; refractometer

Row | Structure (SMILES) | mass density [1] [kg/m3] | refractive index [2]
1 | CCOC(=O)OCC [diethyl carbonate] | 952.43 ± 0.08 | 1.3754 ± 0.0001
2 | COC(=O)OC [dimethyl carbonate] | 1043.19 ± 0.08 | 1.359 ± 0.0001
